Like-named read-outs stand apart in the source and are kept apart here.
Key:
[1] = tested on: Nitrososphaera viennensis; test: Nitrification inhibition assay on Nitrososphaera viennensis (nitrite, Griess); format: cell-based, Nitrososphaera viennensis EN76T; conditions: for N. viennensis - relative nitrification (%) at 0.5 µM: 0.5 µM compound; for N. viennensis - relative nitrification (%) at 0.5 µM / N. viennensis - relative nitrification (%) at 5 µM / N. viennensis - relative nitrification (%) at 25 µM: 0% = as strong as 100 µM PTIO, 100% = no inhibition; for N. viennensis - relative nitrification (%) at 5 µM: 5 µM compound; for N. viennensis - relative nitrification (%) at 25 µM: 25 µM compound; for activity at 2.5 µM: Nitrososphaera viennensis, 2.5 µM compound, structural variants outside formula (I), read-out: Relative nitrification (%) by Nitrososphaera viennensis treated with 2.5 µM compound
Experimental: Nitrite (NO2—) was measured using the Griess reagent (Product number: G4410, Griess reagent (modified), Sigma-Aldrich). Equal volumes of the sample or a diluted sample and the Griess reagent were mixed a transparent flat bottom multi-well plate and incubated in the dark at room temperature for 10 minutes. Absorbance values at 540 nm were measured spectrophotometrically (EnVision, Perkin Elmer®) and used to calculate the [NO2—] by use of a standard curve.
A liquid culture sample of Nitrososphaera viennensis EN76T was kindly supplied by prof. dr. Christa Schleper (University of Vienna). Cells were grown in fresh water medium (FWM) as described earlier by Tourna et al. (2011). All necessary materials were rinsed with 1 % HCl and washed at least 3 times with MilliQ water. FWM (pH 7.5 (KOH)) contained 17 mM NaCl, 3 mM MgCl2 × 2 H2O, 680 µM CaCl2 × 2 H2O, 1.47 mM KH2PO4 and 6.71 mM KCI. After autoclaving, successively 1 mL non-chelated trace element mixture (101 mM HCl, 488 µM H3BO3, 508 µM MnCl2 × 4 H2O, 803 µM CoCl2 × 6 H2O, 101 µM NiCl2 × 6 H2O, 12 µM CuCl2 × 2 H2O, 503 µM ZnSO4 × 7 H2O and 150 µM Na2MoO4 × 2 H2O), 1 mL Fe-NaEDTA (7.5 mM), 1 mL vitamin solution (20 mg/L biotin, 20 mg/L folic acid, 100 mg/L pyridoxine-HCl, 50 mg/L thiamine-HCl, 50 mg/L riboflavin, 50 mg/L nicotinic acid, 50 mg/L DL-pantothenic acid, 50 mg/L P-aminobenzoic acid, 2 g/L choline chloride and 10 mg/L vitamin B12), 2 mL NaHCO3 (1 M), 2 mL kanamycin (100 mg/mL), 2 mL carbenicillin (100 mg/mL), 3 mL NH4Cl (1 M), 10 mL HEPES buffer (1 M, pH 7.6) and 1 mL Na-pyruvate (0.1 M) were added aseptically. All stock-solutions were filter-sterilized, except the autoclaved non-chelated trace element mixture. Cultures were incubated aerobically at 42° C. without shaking in sterile 250-mL Erlenmeyer flasks or 30-mL cultivation tubes (Product number: 216-1290, Quickstart universal containers STERILIN®, VWR) filled with either 100 or 20 mL FWM and sealed with tape (Micropore™ Surgical Tape 1530-1, 3M™). Late-log phase cultures ([NO2-] ≥ 1 mM) were subcultivated by dilution (1:400) in fresh FWM.
7-day old 100 mL cultures grown in 250-mL Erlenmeyer flasks with a [NO2-] ≥ 1 mM were 5 times overconcentrated in fresh FWM by centrifugation (4000 rpm, 15 min, 5° C.) in 50 mL centrifuge tubes (Cat. No. 430829, CentriStar™ Conical Centrifuge Tubes, Corning®). Per batch, all the cultures were pooled in one sterile Schott bottle. Subsequently, 200 µl/well was dispensed at low pipetting speed in transparent flat bottom 96-well plates (Cat. No. 353072, Falcon® 96 Well Clear Microplate, Corning®) using 150 µl wide-bore tips (two steps of 100 µl) on a Tecan robot (Freedom EVO®, Tecan). 0.5 µl of 99.99 % DMSO (negative control - final concentration 0.25%) and 0.5 µl of 0.04 M PTIO (2-phenyl-4,4,5,5-tetramethylimidazoline-1-oxyl 3-oxide, positive control - final concentration 100 µM) were added manually to the first and last column respectively. Finally, 0.5 µl of candidate nitrification inhibitors (1 mM stock solutions in 99.99% DMSO - final concentration 2.5 µM) were added to the central wells using a pin tool on a Tecan robot (Freedom EVO®, Tecan). In between additions, the pins were washed in sequence with 99.5% DMSO, MilliQ water and 100% ethanol and air-dried. All plates were sealed with tape (Micropore™ Surgical Tape 1530-1, 3M™), stacked per 4 on top of a 96-well plate filled with 100 µl MilliQ per well and covered with aluminum foil. Position effects of the stacks within the incubator were considered. Plates were incubated at 42° C. without shaking. 24 h later, NO2— was measured spectrophotometrically at 540 nm (EnVision, Perkin Elmer®). […]

[2] = tested on: ABIL (ammonia-binding liquid inoculum), nitrifying microbial enrichment containing both AOA and AOB; test: Nitrification inhibition assay on ABIL (ammonium consumption); format: cell-based; conditions: 10 µM compound
[3] = structural variants outside formula (I), read-out: Relative nitrification (%) by ABIL treated with 10 µM compound
[4] = 24 h, 24 h, 0% = as strong as 100 µM PTIO, 100% = no inhibition, read-out: ABIL - relative nitrification (%) at 10 µM
[5] = 24 h, 0% = as strong as 100 µM PTIO, 100% = no inhibition

Compound | activity at 2.5 µM [1] | activity at 10 µM [2, 3] | further results
CCn1ncc2c(C(=O)NCC3CCCO3)cc(-c3ccccc3)nc21 (stereo not shown) [Example 9] |  |  | N. viennensis - relative nitrification (%) at 0.5 µM [1]: 100%; N. viennensis - relative nitrification (%) at 5 µM [1]: 100%; N. viennensis - relative nitrification (%) at 25 µM [1]: 54%
CC(C)n1ncc2cc(NC(=O)C3CC3(Cl)Cl)cnc21 (stereo not shown) [Example 19] | 100% | 90% | 
CCc1cccc(NC(=O)CCc2c(C)nc3c(c(C)nn3C)c2C)c1 [Example 34] | 99% | 96% | 
Cc1nc2c(c(C)nn2C)c(C)c1CCC(=O)O [Example 36] | 94% | 97% | 
Cc1nc2c(cnn2C(C)C)cc1C(=O)NC(C)c1ccccc1Br (stereo not shown) [Example 62] | 100% | 100% | 
C=CCNC(=O)c1cnc2c(cnn2C(C)C)c1 [Example 89] | 100% | 100% | 
CC(C)CC(CNC(=O)c1n[nH]c2ccccc12)N1CCOCC1 (stereo not shown) [Example 133] | 100% | 100% | 
O=C(CC1CCCCCC1)c1n[nH]c2ccccc12 [Example 119] | 100% | 99% | 
Cc1nn(C)c2nc(C3CC3)cc(C(=O)N(C)CC(=O)Nc3ccc(Cl)c(Cl)c3)c12 [Example 17] |  |  | activity at 10 µM [2, 4]: 68%
Cc1nc2c(cnn2C(C)C)cc1C(=O)N1CCCN(C)c2nc3ccccc3nc21 [Example 91] | 100% | 100% | 
Cc1nc2c(cnn2C(C)C)cc1C(=O)N1CCc2ccccc21 [Example 74] | 100% | 100% | 
Cc1nc2c(c(C)nn2C)c(C)c1CCC(=O)NCCc1ccc2c(c1)OCO2 [Example 47] | 100% | 100% | 
COc1ccc(OC)c(C(C)NC(=O)c2cnc3c(cnn3C(C)C)c2)c1 (stereo not shown) [Example 39] | 100% | 97% | 
CC(C)c1cc(C(=O)NCC2CCCO2)c2cnn(C(C)C)c2n1 (stereo not shown) [Example 13] |  |  | ABIL - relative nitrification (%) at 10 µM [2, 5]: 49%
Cc1nn(C)c2nc(C3CC3)cc(C(=O)NCCC(C)C)c12 [Example 16] |  |  | activity at 10 µM [2, 4]: 65%
CS(=O)(=O)c1ccc(-c2noc(-c3cccc4[nH]ncc34)n2)cc1 [Example 135] | 100% | 100% | 
O=S(=O)(Cc1ccccc1F)Nc1ccc2[nH]ncc2c1 [Example 153] | 100% | 100% | 
COCCONC(=O)c1cc(C2CC2)nc2c1c(C)nn2C(C)(C)C [Example 6] |  |  | activity at 10 µM [2, 4]: 16%
CCCCc1nnc(NC(=O)c2n[nH]c3ccccc23)s1 [Example 97] | 100% | 86% | 
Cc1nn(C)c2nc(-c3ccco3)cc(C(=O)N(C)CCOc3cccc(Cl)c3)c12 [Example 8] |  |  | N. viennensis - relative nitrification (%) at 0.5 µM [1]: 100%; N. viennensis - relative nitrification (%) at 5 µM [1]: 98%; N. viennensis - relative nitrification (%) at 25 µM [1]: 5%
CC1CCCCN1C(=O)c1n[nH]c2ccccc12 (stereo not shown) [Example 156] | 100% | 100% | 

Compound | activity at 2.5 µM [1] | activity at 10 µM [2, 3] | further results
CC(CNC(=O)c1cccc2[nH]ncc12)CC1(C)OCCO1 (stereo not shown) [Example 110] | 100% | 97% | 
COc1ccc(C(O)CNCc2cccc3cn[nH]c23)cc1 (stereo not shown) [Example 154] | 99% | 100% | 
Cc1n[nH]c2ncc(CNCc3ccc4c(c3)OCO4)cc12 [Example 70] | 100% | 100% | 
O=C1NCCN1c1cccc(NCc2cccc3cn[nH]c23)c1 [Example 116] | 96% | 99% | 
CSCC(=O)Nc1ccc2[nH]ncc2c1 [Example 126] | 100% | 100% | 
Cc1cc(C)nc(-n2nc(C)c3c(C(F)(F)F)cc(-c4cccnc4)nc32)n1 [Example 86] | 94% | 100% | 
Cc1nn(C)c2ncc(CN3CCNCC3C)cc12 (stereo not shown) [Example 82] | 96% | 100% | 
Cc1nc2c(cnn2C(C)C)c(C)c1CCC(=O)NC12CC3CC(CC(C3)C1)C2 [Example 63] | 100% | 100% | 
COCCNC(=O)c1cc(C2CC2)nc2c1cnn2C(C)C [Example 5] |  |  | activity at 10 µM [2, 4]: 11%
CCC1CN(C(=O)CCc2c(C)nc3c(c(C)nn3C)c2C)CCO1 (stereo not shown) [Example 58] | 98% | 100% | 
COc1ccc(N2CC(C(=O)Nc3ccc4[nH]ncc4c3)CC2=O)cc1 (stereo not shown) [Example 160] | 100% | 100% | 
Cc1cccc(C)c1OCC(=O)Nc1cnc2c(cnn2C(C)C)c1 [Example 71] | 94% | 100% | 
CC(C)c1cc(C(=O)NCC2CCCO2)c2cnn(C(C)C)c2n1 (stereo not shown) [Example 4] |  |  | ABIL - relative nitrification (%) at 10 µM [2, 5]: 10%
Cc1nn(C(C)(C)C)c2nc(C3CC3)cc(C(=O)NC(C)C)c12 [Example 12] |  |  | activity at 10 µM [2, 4]: 30%
CC(C)n1ncc2c(C(=O)NCCc3ccccn3)cc(C3CC3)nc21 [Example 10] |  |  | activity at 10 µM [2, 4]: 19%
Cc1nn(C(C)(C)C)c2nc(C3CC3)cc(C(=O)N(C)C)c12 [Example 11] |  |  | activity at 10 µM [2, 4]: 25%
CC(C)n1ncc2c(C(=O)NCCN(C)C)cc(C3CC3)nc21 [Example 15] |  |  | activity at 10 µM [2, 4]: 65%
CCC(C)NC(=O)c1cc(C(C)C)nc2c1cnn2C(C)C (stereo not shown) [Example 14] |  |  | activity at 10 µM [2, 4]: 61%
CC(C)n1ncc2c(C(=O)Nc3nc4c(s3)CCC4)cc(C3CC3)nc21 [Example 7] |  |  | N. viennensis - relative nitrification (%) at 0.5 µM [1]: 85%; N. viennensis - relative nitrification (%) at 5 µM [1]: 7%; N. viennensis - relative nitrification (%) at 25 µM [1]: 2%
CCCN(C)C(=O)c1cc(C2CC2)nc2c1cnn2C(C)C [Example 18] |  |  | activity at 10 µM [2, 4]: 69%

From US20230357099A1, “PYRAZOLO [3,4-B] PYRIDINE-4-CARBOXAMIDE NITRIFICATION INHIBITOR” (EUROCHEM ANTWERPTEN, priority 2020, published 2023)
